# Assays:
# basophils = assay: BAT (CD63) on blood of dosed ISM patients; format: in vivo, human
# Method: The BAT was conducted as set forth in Santos (2021) Allergy, 76:2420-2432. Blood from six healthy donors was drawn and Compound 128 was added at various concentrations (10 μM, 3.16 μM, 1 μM, 0.3 μM, 0.1 μM, 0.03 μM, or 0 μM). Blood samples were gently rocked at room temperature for 2 hours, 24 hours, or 48 hours. The BAT assay using the Flow Cast Basophil Activation Kit (Buhlmann Diagnostics; Catalog #B-CCR-STCON) was then conducted following manufacturer instructions by (1) stimulating the blood with anti-FcεR stimulation control in stimulation buffer with IL-3 and staining cells for CCR3 and CD63 for 15 minutes at 37° C., (2) lysing red blood cells and fixing cells with Lysing Reagent at room temperature for 10 minutes, (3) washing cells with Wash Buffer, and (4) acquiring data on a flow cytometer. Activated basophils were defined as CCR3+, low side scatter and CD63+. Percent of activated basophils was calculated as number of activated basophils over the total number of basophils. A four-parameter logistic regression was applied to determine the EC50 and EC90. […]
# The BAT assay measuring CD63 used the Flow Cast Basophil Activation Kit method and percent activated basophils were calculated as described in Example 1. Percent inhibition of CD63 activation was calculated as (100−(Sample condition−Unstimulated DMSO control)/(Stimulated DMSO control−Unstimulated DMSO control)×100).
# human mast cells = assay: Antigen-induced degranulation (CD63 and histamine) in ISM-like human mast cells; format: cell-based; settings: six healthy donors, treated two hours
# Method: (§1) Human mast cells were derived from bone marrow CD34+ cells from six healthy donors for up to eight weeks by culturing CD34+ cells in StemSpan SFEM II (Stem Cell Technologies) supplemented with stem cell factor (SCF; 100 ng/mL; R&D System), IL-6 (R&D Systems), IL-3 (R&D Systems) and 1% penicillin/streptomycin (P/S; Gibco) for the first 10 days and in StemSpan SFEM II supplemented with SCF and IL-6 and 1% P/S for the remaining time in culture. […] Supernatant was collected and histamine levels were measured using a Histamine ELISA kit (Eagle Biosciences). […] Percent of activated mast cells was calculated as number of activated mast cells over the total number of mast cells.
# Human mast cells were differentiated from bone marrow CD34+ cells from six healthy donors, cultured and sensitized as set forth in Example 4. […] The median fluorescence intensity of phosphorylated BTK was measured. CD63 and histamine levels in these cells were measured and percent activated mast cells were calculated as set forth in Example 4. The percent of stimulated control for pBTK, activated mast cells (CD63+) and histamine levels was calculated. […]
# [1] = tested on: IL-8, MCP-1, MIP-1a, IL-13 and IL-10; assay: Antigen-induced cytokine production in ISM-like and healthy mast cell conditions; format: cell-based, human; settings: ISM-like mast cells; treated two hours, antigen four hours
# Method: as §1
# Human mast cells were differentiated from bone marrow CD34+ cells from two healthy donors, cultured and sensitized in ISM-like and healthy mast cell conditions as set forth in Example 4, treated with Compound 128 for two hours and stimulated with antigen for four hours. Supernatant was collected and cytokine levels were measured using the BD Cytometric Bead Array (CBA) human soluble protein master buffer kit (Becton Dickinson) and BD CBA human soluble protein flex sets for IL-8, MCP-1, MIP-1a, IL-13 and IL-10 (Becton Dickinson). […]
# mast cells = assay: Monomeric IgE-mediated degranulation and cytokine production in mast cells; format: cell-based, human; settings: mast cells from a healthy donor, treated 2 hours, myeloma IgE with SCF
# Method: Mast cells from a healthy donor were starved of SCF for 18 hours and treated with Compound 128 for 2 hours. Mast cells were stimulated with SCF (100 ng/mL) or myeloma IgE (3 μg/mL; Millipore Sigma) alone or in combination for 30 minutes (CD63 and Histamine) or 24 hours (cytokine production), respectively. For the histamine and cytokine test, supernatant was collected and the levels of histamine and cytokines were measured as set forth in Example 4 for histamine and Example 7 for cytokines. For the CD63 test, the cells were stained for CD63, data was acquired on a flow cytometer and percent activated mast cells calculated as set forth in Example 4. […] The monomeric IgE contribution to degranulation and cytokine production is inhibited by Compound 128.
smiles,measurement,setting,value
"C=CC(=O)N1CCC(F)(CNc2ncnc(N)c2-c2ccc(Oc3ccccc3)cc2)CC1 [Compound 128, 1-(4-(((6-amino-5-(4-phenoxyphenyl)pyrimidin-4-yl)amino)methyl)-4-fluoropiperidin-1-yl)prop-2-en-1-one]",inhibition of basophil activation,"basophils; ISM patients, 100 mg or 150 mg BID",effective in inhibiting basophil activation
same,"percent inhibition of CD63 activation of basophils, dose dependence","basophils; ISM patients, 50, 75, 100 or 150 mg BID",greater inhibition of basophil activation is achieved in ISM patients with greater dosing
same,inhibition of IgE-mediated degranulation (CD63 and histamine),human mast cells,potently inhibits
same,IgE-mediated cytokine production,[1],inhibited
same,monomeric IgE contribution to degranulation and cytokine production,mast cells,inhibited
